Results reported in patent US10350334B2, “Catheter locking solution having antimicrobial and anticoagulation properties” (Becton, Dickinson and Company, priority 2009, dated 2019).
“And” between values parts separate entries of the source, which are not always exact repeats. Equal entries are not always repeated.

Experiments:
S. epidermidis = assay: Minimum Biofilm Inhibitory Concentration (MBIC) test; type: cell-based, Staphylococcus epidermidis; settings: for MBIC: adhered cells, 24 hours incubation; for MBIC Assuming 2 mL lock volume: amount in 2 mL lock volume
Protocol: To further evaluate the efficacy of local anesthetics in antimicrobial lock solutions of the present invention, the minimum concentration at which these drugs can inhibit biofilm growth was tested. The local anesthetics identified in Table 4 were tested against three different species of bacteria identified in Table 3 to assess the antimicrobial efficacy against adhered microbes. It is known that adhered microbes, or biofilms, can be more resistant to antimicrobials than planktonic cells.
Experiments were conducted against adhered microbes as follows: first, a test tube containing 10 mL of sterile TSB was inocubated with BD BBL™ Qualiswab™, with the strain of interest. The tube was placed in an incubator at 37° C. overnight. The next day, a flask containing 25 mL of sterile TSB (or Sabouraud Dextrose Broth (SDB) for fungal species) was inoculated with 1 mL of bacterial suspension. The flask was placed in an incubator at 37° C. and shaken at 150 RPM. The next day a new flask containing 25 mL of TSB (or SDB) media was inoculated with 1 mL from the previous culture. The bacterial or fungal species were allowed to grow to log phase.
After the microbes entered the log phase, their concentration was checked to ensure that they had reached a minimum of 1×10^8 CFU/mL per a 0.5 MacFarland standard. Microbes were diluted to a concentration of 1×10^5 CFU/mL using a nephelometer and 200 μL of the microbial suspensions were plated on each of the wells of a 96 well plate. The plate was incubated in a standard incubator at 37° C. for 2 hours to allow for microbial cell adhesion. Next, dilutions of the desired concentrations of antimicrobials were prepared. In a separate, blank plate, 1:2 serial dilutions were prepared with the highest concentration of the antimicrobial to the left of the plate, decreasing in concentration towards the right of the plate. For example, 170 μL of the highest concentration of an antimicrobial was dispensed in column 1 (left of plate). Each of the rest of the columns received 170 μL of saline. Column 2 received 170 μL of antimicrobial, making for a 1:2 dilution (or 50% of original concentration). Contents of Column 2 were then transferred to 3, then from 3 to 4, and so forth. Each well was supplemented with 20% media (TSB for S. epidermidis and P. aeruginosa and SDB for C. albicans), thereby ensuring the viability of the cells over the test time period (24 hours). Positive control wells had 20% media in saline. The bacterial plate was removed from the incubator, and bacterial suspension discarded (adhered cells remain on plate). The antimicrobial formulations identified in Table 4 were then added to the bacterial plate and incubated in a standard incubator at 37° C. for 24 hours. After this time period, solutions in the plate were discarded and plates were rinsed with 200 μL of saline. The cells were then fixed with 200 μL of 95% ethanol for 30 minutes, and allowed to air dry for 10 minutes. Next, the cells were stained for 20 minutes with 250 μL of a filtered solution of 2% crystal violet dye. The plates were then rinsed three times with water, and the 2% crystal violet dye was solubilized with 300 μL of 95% ethanol. The plates were allowed to stand for 10 minutes to complete solubilization and then the plates were read on a spectrophotometer at 570 nm absorbance, wherein high absorbance readings of >0.600 indicated microbial growth. Columns in the plate that had no growth were recorded as the […] (MBIC). FIG. 2 illustrates the MBIC corresponding to the specific local anesthetics.

sheep plasma = assay: Sheep's Plasma Clotting Assay (USP coagulation test); type: biochemical; settings: for Equivalence to Heparin: calculated from volumes giving 50% clotting versus heparin standard
Protocol: In order to understand what the working concentration range could be for the anesthetics tested, a Sheep's Plasma Clotting Assay was performed. This test is based on the United States Pharmacopeia (USP) standard test for coagulation and is often used to understand heparin potency. […] Sheep plasma was thawed in a water bath set to 37° C. To facilitate thawing, the plasma in the bottle was inverted every 15 minutes. The plasma was thawed after about 45-60 minutes. The thawed sheep plasma was filtered through glass wool or filtered into a clean glass beaker or flask, to remove particulate matter and to activate it. About 70-80 mL of filtered sheep plasma was collected. Next, a set of test tubes were prepared (VWR Disposable 13×100-mm) in a 6×12 rack. Ten test tubes were needed for each test solution including ten test tubes for the heparin standard. […] For each test solution, every (10) test tube received different volumes of 0.9% NaCl. […] Next, the local anesthetics were added, namely, tetracaine at 30 mg/mL, dibucaine at 30 mg/mL, and bupivacaine at 38 mg/mL. Each of the ten test tubes received different volumes of test solutions, starting with 280 μL and increasing in volume by 20 μL until reaching a volume of 460 μL at the tenth tube. The total volume of saline and test solutions in each of the tubes was 800 μL. A standard solution, namely, USP heparin sodium standard, was also prepared in the same way, with the starting concentration of heparin being 5.6 U/mL. Next, 1 mL of sheep plasma for heparin assay (Bio-Supplies, Inc, P-SPR-1500) was pipetted into each tube, and the rack was gently shaken to ensure mixing. Two hundred μL of a 1% CaCl2 solution was placed into each tube. The total volume for each tube is 2 mL. Each tube was capped with a VWR Plug-type cap, and contents of each tube were inverted six times to ensure that the entire inner wall of each tube was wet. Tubes were incubated for 1 hour at room temperature. After the 1 hour time period, the extent of clotting in each tube was determined by gently shaking each individual test tube (tapping the end gently is acceptable) and then tilting the tube to observe a clot both vertically and horizontally. The degree to which each tube developed a clot was recorded using the following criteria (per the USP Standard) for the visual inspection of the tubes: • 0% Clotting=No apparent clot formed. • 25% Clotting=Small observable clot with mostly liquid. Clot is very mobile. • 50% Clotting=Plasma is completely clotted but mobile. • 75% Clotting=Clot is not mobile but liquid is still present. • 100% Clotting=Clot is not mobile and no liquid is present.
Because of the testing protocol, starting concentrations of anesthetics were diluted from the original formulation. Calculations can be made to compare the efficacy of these anesthetics to the standard anticoagulant heparin by calculating the point at which both standard and test samples yield 50% clotting. Using this calculation, the anesthetic concentration can be referenced back to a measure of U/mL of heparin equivalence.

SMILES	MBIC (S. epidermidis; HCl) [mg/mL]	MBIC (S. epidermidis; listed as tetracaine, HCl) [mg/mL]	MBIC Assuming 2 mL lock volume (S. epidermidis) [mg]	volume at 50% coagulation (sheep plasma; Rep 1) [µL]	Equivalence to Heparin (sheep plasma; per replicate, HCl)	Equivalence to Heparin (sheep plasma; per replicate, listed as tetracaine, HCl) [U/mL]	50% clotting range (sheep plasma; final concentration in tube, 1 hour at room temperature, per replicate, HCl)	MBIC (S. epidermidis) [mg/mL]	coagulation (sheep plasma; at all concentrations tested) [%]
CCCCNc1ccc(C(=O)OCCN(C)C)cc1.Cl [Tetracaine, Tetracaine HCl]	0.94	0.9	1.88	350	6.06 U/mL and 6.24 U/mL (2×)	6.25	5.4 mg/mL (2×) and 5.1-5.4 mg/mL	–	–
CCCCN1CCCCC1C(=O)Nc1c(C)cccc1C.Cl (stereo not shown) [Bupivacaine, Bupivacaine HCl]	–	–	16.24	–	–	–	–	8.12	75
